Reference: PMC3849221 (NeuroImage, 2013)
Where “and” joins values, the source holds several entries; their conditions need not be identical. Equal values may be shown once. Entries after “also recorded” stand apart in the source; their conditions may differ.

Columns and labels:
[1] = Lipophilicity LogD7.4; assay type: physicochemical; conditions: n-octanol / 0.15 M sodium phosphate buffer pH 7.4, room temperature, 6 measurements
[2] = molecular target: CB1 receptor (Homo sapiens, UniProt P21554); assay: Human brain PET with 11C-SD5024, compartmental modeling; assay type: in vivo; conditions: for VT / K1 / k2 / vB (%): one-tissue compartment model, mean±SD; for VT: 120 min; for K1 / k2 / vB (%): seven subjects; for Intersubject Variability of VT (SD/mean): n=7, 120min
[3] = Measurement of 11C-SD5024 in human arterial plasma; assay type: in vivo
[4] = Pharmacological effects of injected 11C-SD5024 in healthy subjects; assay type: in vivo; conditions: human, injected mass dose 242±47 pmol/kg, n=7
[5] = molecular target: CB1 receptors (Macaca mulatta, UniProt Q71SP5); assay: Monkey brain PET with 11C-SD5024, baseline and rimonabant pre-blocked scans; conditions: for VT Baseline: one value per monkey; for VT Preblocked: rimonabant 3 mg/kg i.v.
[6] = monkey striatum, calculated from caudate and putamen (Table 2)

CB1 receptor, sequence (P21554 whole entry): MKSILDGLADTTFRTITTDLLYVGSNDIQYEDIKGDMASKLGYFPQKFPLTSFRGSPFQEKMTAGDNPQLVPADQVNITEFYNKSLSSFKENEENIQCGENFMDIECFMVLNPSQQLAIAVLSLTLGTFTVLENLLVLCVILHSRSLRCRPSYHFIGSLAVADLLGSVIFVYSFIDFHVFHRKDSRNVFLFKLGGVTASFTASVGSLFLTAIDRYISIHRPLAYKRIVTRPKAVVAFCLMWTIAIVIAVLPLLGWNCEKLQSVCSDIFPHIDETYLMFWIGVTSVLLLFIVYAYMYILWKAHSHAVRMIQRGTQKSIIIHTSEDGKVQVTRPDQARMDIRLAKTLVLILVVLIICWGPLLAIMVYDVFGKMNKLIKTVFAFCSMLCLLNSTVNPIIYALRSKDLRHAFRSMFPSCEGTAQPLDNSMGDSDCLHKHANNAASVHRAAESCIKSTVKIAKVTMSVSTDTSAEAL
CB1 receptors, sequence (Q71SP5 whole entry): as the sequence (P21554 whole entry) above

N#[11C]c1ccc(S(=O)(=O)NC(=N)N2CC(c3ccccc3)C(c3ccc(Cl)cc3)=N2)cc1 (stereo not drawn) [^11C-SD5024, [cyano-^11C](−)-3-(4-chlorophenyl)-N-[(4-cyanophenyl)sulfonyl]-4-phenyl-4,5-dihydro-1H-pyrazole-1-carboxamidine]
LogD7.4 [1]: 3.79±0.09 | decrease of brain radioactivity from peak time (40 min) to end of scan (120 min) [2]: 20% | time of peak brain activity [2]: ~ 40 min | VT ([2]; Caudate, n=7): 2.31±0.55 mL·cm^−3 | K1 ([2]; Caudate): 0.028±0.005 mL/cm^3/min | k2 ([2]; Caudate): 0.013 ± 0.003 min⁻¹ | vB (%) ([2]; Caudate): 3.7±0.67% | VT ([2]; Cerebellum, n=7): 1.93±0.38 mL·cm^−3 | K1 ([2]; Cerebellum): 0.030±0.006 mL/cm^3/min | k2 ([2]; Cerebellum): 0.016 ± 0.003 min⁻¹ | vB (%) ([2]; Cerebellum): 6.4±0.69% | VT ([2]; Cingulate, n=7): 2.79±0.58 mL·cm^−3 | K1 ([2]; Cingulate): 0.029±0.006 mL/cm^3/min | k2 ([2]; Cingulate): 0.011 ± 0.002 min⁻¹ | vB (%) ([2]; Cingulate): 5.0±0.58% | Intersubject Variability of VT (SD/mean) ([2]; Frontal): 21% | VT ([2]; Frontal, n=7): 2.57±0.54 mL·cm^−3 | K1 ([2]; Frontal): 0.032±0.006 mL/cm^3/min | k2 ([2]; Frontal): 0.013 ± 0.003 min⁻¹ | vB (%) ([2]; Frontal): 4.4±0.66% | VT ([2]; Lateral temporal, n=7): 2.66±0.57 mL·cm^−3 | K1 ([2]; Lateral temporal): 0.032±0.007 mL/cm^3/min | k2 ([2]; Lateral temporal): 0.012 ± 0.002 min⁻¹ | vB (%) ([2]; Lateral temporal): 5.2±0.64% | VT ([2]; Medial temporal, n=7): 2.48±0.65 mL·cm^−3 | K1 ([2]; Medial temporal): 0.023±0.005 mL/cm^3/min | k2 ([2]; Medial temporal): 0.010 ± 0.002 min⁻¹ | vB (%) ([2]; Medial temporal): 5.3±0.58% | VT ([2]; Occipital, n=7): 2.00±0.38 mL·cm^−3 | K1 ([2]; Occipital): 0.035±0.007 mL/cm^3/min | k2 ([2]; Occipital): 0.018 ± 0.003 min⁻¹ | vB (%) ([2]; Occipital): 5.9±0.49% | VT ([2]; Parietal, n=7): 2.44±0.50 mL·cm^−3 | K1 ([2]; Parietal): 0.034±0.006 mL/cm^3/min | k2 ([2]; Parietal): 0.014 ± 0.003 min⁻¹ | vB (%) ([2]; Parietal): 4.8±0.50% | Intersubject Variability of VT (SD/mean) ([2]; Putamen): 22% | VT ([2]; Putamen, n=7): 3.16±0.70 mL·cm^−3 | K1 ([2]; Putamen): 0.038±0.008 mL/cm^3/min | k2 ([2]; Putamen): 0.012 ± 0.003 min⁻¹ | vB (%) ([2]; Putamen): 4.0±0.79% | peak brain uptake of 11C-SD5024 higher than that of 11C-OMAR by ([2]; Table 5): about 40% | peak brain uptake of 11C-SD5024 lower than that of 11C-MePPEP by ([2]; Table 5): about 20% | peak brain uptake of 11C-SD5024 relative to 11C-OMAR ([2]; Table 5): ~ 1.4 times | VT of 11C-SD5024 relative to 11C-OMAR ([2]; Table 6): about twice higher; also recorded: about two-fold greater; also recorded: about twice greater | Intersubject Variability of VT (SD/mean) ([2]; Thalamus): 24% | VT ([2]; Thalamus, n=7): 1.71±0.41 mL·cm^−3 | K1 ([2]; Thalamus): 0.029±0.006 mL/cm^3/min | k2 ([2]; Thalamus): 0.017 ± 0.004 min⁻¹ | vB (%) ([2]; Thalamus): 4.6±0.49% | accumulation of radiometabolites in brain ([2]; from time stability of VT): do not significantly accumulate in brain | intersubject variability for VT (Table 6) ([2]; n=7): ~ 24% | intersubject variability of VT, average value ([2]; n=7): 22% | average SE of VT across brain regions (identifiability) ([2]; one-compartment model): 1.8% | scan duration adequate to measure VT / CB1 receptors ([2]; truncation of the 120-min scan): 80 min | free fraction in plasma (fP) [3]: too low to measure accurately | time of peak concentration in arterial plasma [3]: 75 s | peak concentration in arterial plasma ([3]; after i.v. injection): 24±8 SUV | fraction of parent as percentage of total plasma radioactivity ([3]; at 75 min): 51±13% | plasma concentrations of 11C-SD5024 relative to 11C-MePPEP ([3]; from 30 to 120 min): five-times | pharmacological effects (subjective reports, vital signs, laboratory tests) [4]: no pharmacological effects | specific binding as proportion of VT ([5]; monkey brain, baseline vs receptor blockade with rimonabant 3 mg/kg i.v.): ~ 80% | Specific binding (%) ([5]; monkey striatum, (VT baseline – VT preblock)/VT baseline): 82% | VT (striatum) Baseline [5, 6]: 2.36 mL·cm^−3 | VT (striatum) Preblocked [5, 6]: 0.44 mL·cm^−3 | Specific binding (%) ([5]; monkey, Caudate, (VT baseline – VT preblocked)/VT baseline): 82% and 79% | VT Baseline ([5]; monkey, Caudate): 1.62 mL · cm^−3 and 2.79 mL · cm^−3 | VT Preblocked ([5]; monkey, Caudate): 0.30 mL · cm^−3 and 0.60 mL · cm^−3 | Specific binding (%) ([5]; monkey, Cerebellum, (VT baseline – VT preblocked)/VT baseline): 79% and 78% | VT Baseline ([5]; monkey, Cerebellum): 1.27 mL · cm^−3 and 2.34 mL · cm^−3 | VT Preblocked ([5]; monkey, Cerebellum): 0.27 mL · cm^−3 and 0.51 mL · cm^−3 | Specific binding (%) ([5]; monkey, Cingulate, (VT baseline – VT preblocked)/VT baseline): 84% and 82% | VT Baseline ([5]; monkey, Cingulate): 1.74 mL · cm^−3 and 3.58 mL · cm^−3 | Specific binding (%) ([5]; monkey, Frontal Ctx, (VT baseline – VT preblocked)/VT baseline): 79% and 72% | VT Baseline ([5]; monkey, Frontal Ctx): 1.77 mL · cm^−3 and 3.13 mL · cm^−3 | Specific binding (%) ([5]; monkey, Lateral Temporal Ctx, (VT baseline – VT preblocked)/VT baseline): 81% and 77% | VT Baseline ([5]; monkey, Lateral Temporal Ctx): 1.32 mL · cm^−3 and 2.52 mL · cm^−3 | Specific binding (%) ([5]; monkey, Medial Temporal Ctx, (VT baseline – VT preblocked)/VT baseline): 71% | VT Baseline ([5]; monkey, Medial Temporal Ctx): 1.33 mL · cm^−3 and 2.54 mL · cm^−3 | VT Preblocked ([5]; monkey, Medial Temporal Ctx): 0.39 mL · cm^−3 and 0.75 mL · cm^−3 | Specific binding (%) ([5]; monkey, Occipital Ctx, (VT baseline – VT preblocked)/VT baseline): 78% and 71% | VT Baseline ([5]; monkey, Occipital Ctx): 1.07 mL · cm^−3 and 2.00 mL · cm^−3 | Specific binding (%) ([5]; monkey, Parietal Ctx, (VT baseline – VT preblocked)/VT baseline): 81% and 74% | VT Baseline ([5]; monkey, Parietal Ctx): 1.39 mL · cm^−3 and 2.70 mL · cm^−3 | Specific binding (%) ([5]; monkey, Putamen, (VT baseline – VT preblocked)/VT baseline): 83% and 81% | VT Baseline ([5]; monkey, Putamen): 1.84 mL · cm^−3 and 3.04 mL · cm^−3 | VT Preblocked ([5]; monkey, Putamen): 0.31 mL · cm^−3 and 0.56 mL · cm^−3 | Specific binding (%) ([5]; monkey, Thalamus, (VT baseline – VT preblocked)/VT baseline): 64% and 68% | VT Baseline ([5]; monkey, Thalamus): 0.83 mL · cm^−3 and 1.85 mL · cm^−3 | VT Preblocked ([5]; monkey, Thalamus): 0.30 mL · cm^−3 and 0.59 mL · cm^−3 | time of peak brain activity ([5]; monkey, baseline): ~ 60 min | brain activity (peak) ([5]; monkey, baseline, after i.v. injection): ~ 2 SUV | average SE of VT across brain regions (identifiability) ([5]; monkey, one-compartment model): 3.8%
